# Reference: ChEMBL document CHEMBL5291721, “A preclinical secondary pharmacology resource illuminates target-adverse drug reaction associations of marketed drugs” (Nat Commun, 2023)
# “And” between values parts separate entries of the source, which are not always exact repeats. Identical values can stand only once.
# How the values were obtained:
# [1] = molecular target: 5-hydroxytryptamine receptor 2B (Homo sapiens, UniProt P41595); type: functional, cell-based
# Mu-type opioid receptor = Mu-type opioid receptor (Homo sapiens, UniProt P35372)
# Mu-type opioid receptor, sequence (P35372 whole entry): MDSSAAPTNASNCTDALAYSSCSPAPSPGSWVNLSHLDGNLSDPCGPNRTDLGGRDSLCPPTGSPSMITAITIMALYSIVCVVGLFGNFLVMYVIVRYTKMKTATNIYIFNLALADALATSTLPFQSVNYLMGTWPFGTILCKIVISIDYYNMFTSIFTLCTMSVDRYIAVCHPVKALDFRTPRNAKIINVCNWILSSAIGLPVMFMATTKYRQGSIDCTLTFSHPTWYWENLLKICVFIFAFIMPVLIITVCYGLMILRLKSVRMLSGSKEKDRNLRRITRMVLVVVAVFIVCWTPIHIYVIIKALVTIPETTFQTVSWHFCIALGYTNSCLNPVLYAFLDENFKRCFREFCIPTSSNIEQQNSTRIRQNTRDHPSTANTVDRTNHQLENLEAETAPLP
# D(1A) dopamine receptor = D(1A) dopamine receptor (Homo sapiens, UniProt P21728)
# D(1A) dopamine receptor, sequence (P21728 whole entry): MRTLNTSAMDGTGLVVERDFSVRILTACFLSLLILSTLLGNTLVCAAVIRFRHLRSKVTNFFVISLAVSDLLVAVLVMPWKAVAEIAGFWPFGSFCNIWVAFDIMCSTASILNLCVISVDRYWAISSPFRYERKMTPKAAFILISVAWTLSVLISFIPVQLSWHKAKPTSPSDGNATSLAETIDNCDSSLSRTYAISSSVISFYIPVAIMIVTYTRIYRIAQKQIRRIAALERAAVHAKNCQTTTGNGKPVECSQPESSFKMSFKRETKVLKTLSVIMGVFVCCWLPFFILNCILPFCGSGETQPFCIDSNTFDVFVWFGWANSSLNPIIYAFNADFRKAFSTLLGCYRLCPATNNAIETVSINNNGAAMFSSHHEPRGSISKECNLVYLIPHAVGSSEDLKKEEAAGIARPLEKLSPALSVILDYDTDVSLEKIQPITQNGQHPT
# [2] = molecular target: T1, Muscarinic acetylcholine receptor M1 (Homo sapiens, UniProt P11229); type: functional
# T1 sequence (P11229 whole entry): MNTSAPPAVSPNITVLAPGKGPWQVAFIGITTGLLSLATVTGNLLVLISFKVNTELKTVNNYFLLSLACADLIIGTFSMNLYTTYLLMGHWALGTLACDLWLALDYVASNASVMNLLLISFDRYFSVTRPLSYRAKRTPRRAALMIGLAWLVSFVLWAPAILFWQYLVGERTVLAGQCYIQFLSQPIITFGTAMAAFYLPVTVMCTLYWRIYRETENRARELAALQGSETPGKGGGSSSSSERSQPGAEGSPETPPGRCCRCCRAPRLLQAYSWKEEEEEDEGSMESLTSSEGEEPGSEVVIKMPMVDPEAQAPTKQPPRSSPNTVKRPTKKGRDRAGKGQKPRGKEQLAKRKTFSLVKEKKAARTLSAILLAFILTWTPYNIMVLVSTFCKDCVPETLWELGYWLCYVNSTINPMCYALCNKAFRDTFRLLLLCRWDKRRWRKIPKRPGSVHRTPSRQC
# [3] = molecular target: Muscarinic acetylcholine receptor M3 (Homo sapiens, UniProt P20309)
# Muscarinic acetylcholine receptor M3, sequence (P20309 whole entry): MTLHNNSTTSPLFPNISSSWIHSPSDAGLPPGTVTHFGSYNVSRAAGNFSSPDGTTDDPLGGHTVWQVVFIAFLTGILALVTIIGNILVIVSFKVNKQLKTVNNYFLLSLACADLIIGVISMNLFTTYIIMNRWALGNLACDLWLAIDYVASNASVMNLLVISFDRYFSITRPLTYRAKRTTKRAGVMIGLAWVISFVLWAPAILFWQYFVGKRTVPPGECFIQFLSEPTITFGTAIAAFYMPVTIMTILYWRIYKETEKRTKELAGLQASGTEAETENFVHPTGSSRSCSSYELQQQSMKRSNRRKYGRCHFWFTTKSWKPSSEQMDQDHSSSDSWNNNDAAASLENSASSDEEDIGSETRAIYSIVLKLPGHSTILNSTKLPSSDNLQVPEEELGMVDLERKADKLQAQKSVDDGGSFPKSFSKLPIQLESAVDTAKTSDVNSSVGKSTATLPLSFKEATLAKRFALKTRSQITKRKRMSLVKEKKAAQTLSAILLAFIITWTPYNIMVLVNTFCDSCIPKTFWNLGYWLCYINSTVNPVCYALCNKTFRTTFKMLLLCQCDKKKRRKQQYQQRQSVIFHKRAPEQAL
# Endothelin-1 receptor = molecular target: T2, Endothelin-1 receptor (Homo sapiens, UniProt P25101)
# T2 sequence (P25101 whole entry): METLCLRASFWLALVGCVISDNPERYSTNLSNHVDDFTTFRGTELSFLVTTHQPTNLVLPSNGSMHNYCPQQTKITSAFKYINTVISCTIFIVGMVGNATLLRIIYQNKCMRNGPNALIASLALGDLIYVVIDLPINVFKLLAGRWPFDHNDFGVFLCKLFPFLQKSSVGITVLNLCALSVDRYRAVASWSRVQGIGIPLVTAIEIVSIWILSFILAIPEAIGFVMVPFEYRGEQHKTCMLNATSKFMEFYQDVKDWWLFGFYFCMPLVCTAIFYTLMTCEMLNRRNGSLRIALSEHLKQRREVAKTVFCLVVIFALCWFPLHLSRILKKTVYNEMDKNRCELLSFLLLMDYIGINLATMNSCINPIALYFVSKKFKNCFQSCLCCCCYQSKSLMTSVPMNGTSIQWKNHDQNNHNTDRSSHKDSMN
# Histamine H3 receptor = Histamine H3 receptor (Homo sapiens, UniProt Q9Y5N1)
# Histamine H3 receptor, sequence (Q9Y5N1 whole entry): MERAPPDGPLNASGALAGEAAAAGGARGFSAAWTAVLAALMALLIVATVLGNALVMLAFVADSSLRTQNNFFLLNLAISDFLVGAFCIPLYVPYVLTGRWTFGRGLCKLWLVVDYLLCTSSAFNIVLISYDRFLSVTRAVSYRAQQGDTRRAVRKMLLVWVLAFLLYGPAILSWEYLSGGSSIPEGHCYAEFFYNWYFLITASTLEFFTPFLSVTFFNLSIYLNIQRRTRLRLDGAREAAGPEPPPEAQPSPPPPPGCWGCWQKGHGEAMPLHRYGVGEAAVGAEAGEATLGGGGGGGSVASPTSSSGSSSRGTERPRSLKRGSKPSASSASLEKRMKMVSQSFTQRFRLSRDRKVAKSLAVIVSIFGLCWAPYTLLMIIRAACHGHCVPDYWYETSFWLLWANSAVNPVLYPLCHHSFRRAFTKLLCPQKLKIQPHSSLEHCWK
# Further: assay procedure not described here.
# 5-hydroxytryptamine receptor 2B, sequence (P41595 whole entry): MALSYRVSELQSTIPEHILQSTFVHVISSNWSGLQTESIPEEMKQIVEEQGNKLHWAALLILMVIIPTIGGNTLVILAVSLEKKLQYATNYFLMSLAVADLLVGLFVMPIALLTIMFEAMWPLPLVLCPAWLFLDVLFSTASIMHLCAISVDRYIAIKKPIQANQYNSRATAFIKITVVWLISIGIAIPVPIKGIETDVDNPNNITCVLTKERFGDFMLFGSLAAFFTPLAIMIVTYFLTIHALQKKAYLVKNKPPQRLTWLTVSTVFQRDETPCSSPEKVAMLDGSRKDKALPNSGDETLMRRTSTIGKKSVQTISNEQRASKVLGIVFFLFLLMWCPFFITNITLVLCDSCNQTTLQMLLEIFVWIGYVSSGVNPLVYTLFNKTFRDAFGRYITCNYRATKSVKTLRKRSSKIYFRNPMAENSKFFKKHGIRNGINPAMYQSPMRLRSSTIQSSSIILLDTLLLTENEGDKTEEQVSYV
Compound,AC50 [1],AC50 (Mu-type opioid receptor),AC50 (D(1A) dopamine receptor),AC50 [2],AC50 [3],AC50 (Endothelin-1 receptor),AC50 (Histamine H3 receptor)
CCCCC1C(=O)N(c2ccccc2)N(c2ccccc2)C1=O [PHENYLBUTAZONE],> 10 µM,,,,,,
COC(=O)c1ccc(O)cc1 [METHYLPARABEN],,> 30 µM,> 30 µM,,,,
CC[C@@H]([C@H](C)O)n1ncn(-c2ccc(N3CCN(c4ccc(OC[C@@H]5CO[C@@](Cn6cncn6)(c6ccc(F)cc6F)C5)cc4)CC3)cc2)c1=O [POSACONAZOLE],,> 30 µM,> 30 µM,> 30 µM,,,
CCOC(=O)N1CSC[C@H]1C(=O)O [TELMESTEINE],,> 30 µM,> 30 µM,,,,
CC1OC2(CS1)CN1CCC2CC1 (configuration not stated) [CEVIMELINE],> 10 µM,,,> 30 µM,> 30 µM,,
CCC(C)C1(CC)C(=O)NC(=O)NC1=O (configuration not stated) [BUTABARBITAL],> 30 µM,,,> 30 µM,,> 30 µM,> 30 µM
Cc1ncc(COP(=O)(O)O)c(C=O)c1O [PYRIDOXAL PHOSPHATE ANHYDROUS],,> 30 µM,> 30 µM,,,,
Cc1c(N(C)CS(=O)(=O)O)c(=O)n(-c2ccccc2)n1C [METAMIZOLE],,> 30 µM,> 30 µM,,,,
CCC(=O)O[C@]1(C(=O)CCl)[C@@H](C)C[C@H]2[C@@H]3C[C@H](F)C4=CC(=O)C=C[C@]4(C)[C@@]3(F)[C@@H](O)C[C@@]21C [HALOBETASOL PROPIONATE],,> 30 µM,> 30 µM,,,,
Cc1cccc(N2CC(CO)OC2=O)c1 (configuration not stated) [TOLOXATONE],> 30 µM,,,> 30 µM,> 30 µM,> 30 µM,> 30 µM
C[C@]12CC[C@@H]3c4ccc(O)cc4C[C@@H](CCCCCCCCC[S+]([O-])CCCC(F)(F)C(F)(F)F)[C@H]3[C@@H]1CC[C@@H]2O (some centres not stated) [FULVESTRANT],> 30 µM,,,> 30 µM,> 30 µM,> 30 µM,> 30 µM
CC(C)N(CCNC(=O)CN1CCCC1=O)C(C)C,,> 30 µM,> 30 µM,,,,
Cc1ccccc1N1CCN(CCc2nnc3n2CCCC3)CC1 [DAPIPRAZOLE],,> 30 µM,> 30 µM,,,,
CN(C)CCOC(c1ccccc1)c1ccc(Br)cc1 (configuration not stated) [BROMODIPHENHYDRAMINE],,17.9 µM,2.95 µM,,,,
C=CCNc1nc(NCC=C)nc(N2CCN(C(c3ccc(F)cc3)c3ccc(F)cc3)CC2)n1 [ALMITRINE],> 30 µM,,,> 30 µM,> 30 µM,> 30 µM,> 30 µM
CC(C(=O)O)c1ccc(-c2ccccc2)c(F)c1 (configuration not stated) [FLURBIPROFEN],> 10 µM,> 30 µM,> 30 µM,,,,
CC(C)(C)NC[C@H](O)COc1cccc2c1CCCC2=O [LEVOBUNOLOL],,> 30 µM,> 30 µM,,,,
COCC1=C(C(=O)O)N2C(=O)[C@@H](NC(=O)/C(=N\OC)c3csc(N)n3)[C@H]2SC1 [CEFPODOXIME],> 30 µM,,,> 30 µM,> 30 µM,> 30 µM,> 30 µM
CC(N)Cc1ccc(O)cc1 (configuration not stated) [HYDROXYAMPHETAMINE],,> 30 µM,> 30 µM,,,,
NCC(CC(=O)O)c1ccccc1 (configuration not stated) [PHENIBUT],,> 30 µM,> 30 µM,,,,
Nc1ncn([C@H]2C[C@H](O)[C@@H](CO)O2)c(=O)n1 [DECITABINE],> 30 µM,,,> 30 µM,> 30 µM,,> 30 µM
CCOC(=O)c1cncn1[C@H](C)c1ccccc1 [ETOMIDATE],> 10 µM,,,> 10 µM,> 30 µM,,> 10 µM
CC(C(=O)O)c1ccc(CC2CCCC2=O)cc1 (configuration not stated) [LOXOPROFEN],> 30 µM,,,,,> 30 µM,> 30 µM
CC1=CCC(C(C)(C)O)CC1O (configuration not stated) [SOBREROL],,> 30 µM,> 30 µM,,,,
CCCc1nc(C(C)(C)O)c(C(=O)O)n1Cc1ccc(-c2ccccc2-c2nnn[nH]2)cc1 [OLMESARTAN],,> 30 µM,> 30 µM,,,,
CC(=O)O[C@]1(C(C)=O)CC[C@H]2[C@@H]3C=C(Cl)C4=CC(=O)CC[C@]4(C)[C@H]3CC[C@@]21C [CHLORMADINONE ACETATE],,> 30 µM,> 30 µM,,,,
Clc1ccc2c(N3CCN(CCCN4CCN(c5ccnc6cc(Cl)ccc56)CC4)CC3)ccnc2c1 [PIPERAQUINE],> 30 µM,,,3.8 µM,> 30 µM,> 30 µM,6.1 µM

Compound,AC50 [1],AC50 (Mu-type opioid receptor),AC50 (D(1A) dopamine receptor),AC50 [2],AC50 [3],AC50 (Endothelin-1 receptor),AC50 (Histamine H3 receptor)
COc1ccc(CN(CCN(C)C)c2ccccn2)cc1 [PYRILAMINE],,9.05 µM,24.2 µM,,,,
CCN(CCCc1ccccc1)CCCc1ccccc1 [ALVERINE],,2 µM,3.72 µM,,,,
CC1(C)S[C@@H]2[C@H](NC(=O)[C@H](N)c3ccccc3)C(=O)N2[C@H]1C(=O)OCOC(=O)[C@@H]1N2C(=O)C[C@H]2S(=O)(=O)C1(C)C [SULTAMICILLIN],> 30 µM,,,> 30 µM,> 30 µM,> 30 µM,> 30 µM
CC(C)[C@H](N)C(=O)OCC(CO)OCn1cnc2c(=O)nc(N)[nH]c21 (some centres not stated) [VALGANCICLOVIR],> 30 µM,,,> 30 µM,> 30 µM,,> 30 µM
CCN(CC)C(=S)S [DITIOCARB],,> 30 µM,> 30 µM,,,,
CCC1(c2ccccc2)CCC(=O)NC1=O (configuration not stated) [GLUTETHIMIDE],> 10 µM,,,> 10 µM,> 30 µM,,> 10 µM
O=[N+]([O-])c1ccc(O)c2ncccc12 [NITROXOLINE],> 30 µM,> 30 µM,> 30 µM,8.5 µM,7.6 µM,,
Cc1cc(N)c2ccccc2[n+]1CCCCCCCCCC[n+]1c(C)cc(N)c2ccccc21,,0.684 µM,1.04 µM,,,,
C=CCSCC1Nc2cc(Cl)c(S(N)(=O)=O)cc2S(=O)(=O)N1 (configuration not stated) [ALTHIAZIDE],,> 30 µM,> 30 µM,,,,
COc1cc2c(cc1OC)CC(=O)N(CCCN(C)C[C@H]1Cc3cc(OC)c(OC)cc31)CC2 [IVABRADINE],,> 30 µM,> 30 µM,,,,
CCC(=O)O[C@H]1CC[C@H]2[C@@H]3CCC4=CC(=O)CC[C@]4(C)[C@H]3CC[C@]12C [TESTOSTERONE PROPIONATE],> 10 µM,,,> 10 µM,> 10 µM,,
CNCc1ccc(-c2[nH]c3cc(F)cc4c3c2CCNC4=O)cc1 [RUCAPARIB],,,,> 10 µM,,,
C[C@H](Cc1cc2c(c(C(N)=O)c1)N(CCCO)CC2)NCCOc1ccccc1OCC(F)(F)F [SILODOSIN],,3.34 µM,10.8 µM,,,,
COc1cc(N2CCC(N3CCN(C)CC3)CC2)ccc1Nc1ncc(Cl)c(Nc2ccccc2P(C)(C)=O)n1 [BRIGATINIB],,> 30 µM,> 30 µM,,,,
C#C[C@]1(OC(C)=O)CC[C@H]2[C@@H]3CCC4=C/C(=N/O)CC[C@@H]4[C@H]3CC[C@@]21CC [NORGESTIMATE],> 30 µM,,,> 30 µM,,> 30 µM,> 30 µM
Cc1noc(NS(=O)(=O)c2ccc(N)cc2)c1C [SULFISOXAZOLE],> 10 µM,,,,,,> 10 µM
Clc1ccc(C(Cn2ccnc2)OCc2ccsc2Cl)c(Cl)c1 (configuration not stated) [TIOCONAZOLE],> 30 µM,,,> 30 µM,26 µM,,> 30 µM
Cc1cc(NC(=O)C2=C(O)c3ccccc3S(=O)(=O)N2C)no1 [ISOXICAM],,> 30 µM,> 30 µM,,,,
CC(C)(C)C(=O)OCC(=O)[C@H]1CC[C@H]2[C@@H]3CCC4=CC(=O)CC[C@]4(C)[C@H]3CC[C@]12C [DESOXYCORTICOSTERONE PIVALATE],> 10 µM,,,> 10 µM,> 30 µM,,> 10 µM
c1ccc2c(c1)CCc1ccccc1N2C1CN2CCC1CC2 (configuration not stated) [QUINUPRAMINE],,1.84 µM,2.41 µM,,,,
CN1C(=O)/C(=N\NC(N)=S)c2ccccc21 [METHISAZONE],,> 30 µM,> 30 µM,,,,
Cc1cc2cc3c(C)cc(=O)oc3c(C)c2o1 [TRIOXSALEN],> 10 µM,,,,,,
NC(=O)OCC(O)COc1ccc(Cl)cc1 (configuration not stated) [CHLORPHENESIN CARBAMATE],,> 30 µM,> 30 µM,,,,
CCOC(=O)[C@H](CCc1ccccc1)N[C@@H](C)C(=O)N(CC(=O)O)C1Cc2ccccc2C1,,> 30 µM,> 30 µM,,,,
C[C@H](Cc1ccc(O)c(O)c1)[C@@H](C)Cc1ccc(O)c(O)c1 [MASOPROCOL],> 10 µM,,,> 10 µM and 29 µM and > 30 µM,> 30 µM,,> 10 µM
C=C1CC[C@H](O)C/C1=C/C=C1\CCC[C@]2(C)[C@@H]([C@H](C)/C=C/[C@H](C)C(C)C)CC[C@@H]12 [ERGOCALCIFEROL],,> 30 µM,> 30 µM,,,,
